# Legend:
# A375 = experiment: Compounds cellular killing in A375; type: cell-based, human; details: for EC50 / Emax / Emax (%): A375, 6 days, Cell Titer-Glo; for potency compared with compound 1-A and 1-C: Table 18, A375 and Calu-6
# Experimental: (§1) Seeding cells A375 (1E3/well) or Calu-6 (2E3/well) into 96-well plate (Greiner: 655090), 100 ul/well. Incubation at 37° C., 5% CO2, overnight.
# (§2) Adding the fresh growth-medium containing the varying concentrations of compounds, 50 ul/well.
# (§3) Incubation at 37° C., 5% CO2, 6 days.
# (§4) The cell viability detected by Cell Titer-Glo (Promega, G7573). Add 70 µL/well of CellTiter-Glo® Reagent in each well.
# (§5) Allow the plates to incubate at room temperature for 10 minutes to stabilize luminescent signal.
# (§6) Analyze with Microplate Reader.
# (§7) Seeding cells A375 ([…] or Calu-6 (2E3/well) into 96-well plate (Greiner: 655090), 100 ul/well. Incubation at 37° C., […], overnight.
# Calu-6 = experiment: Compounds cellular killing in Calu-6; type: cell-based, human; details: Calu-6, 6 days, Cell Titer-Glo
# Experimental: as §1, §2, §3, §4, §5, §6, §7
SMILES,"EC50 (A375; Homo sapiens, A-375, […])","Emax (A375; Homo sapiens, A-375, […])","EC50 (Calu-6; Homo sapiens, Calu-6, […])","Emax (Calu-6; Homo sapiens, Calu-6, […])","EC50 (A375; Homo sapiens, A-375)","Emax (A375; Homo sapiens, A-375)",EC50 (Calu-6; Homo sapiens),further results
"CC[C@@]1(O)C(=O)OCc2c1cc1n(c2=O)Cc2c-1nc1cc(F)c(C)c3c1c2[C@@H](NC(=O)[C@@H]1C[C@@H](O)CN1C)CC3 [Example 2-36, (2S,4R)—N-((1S,9S)-9-ethyl-5-fluoro-9-hydroxy-4-methyl-10,13-dioxo-2,3,9,10,13,15-hexahydro-1H,12H-benzo[de]pyrano[3′,4′:6,7]indolizino[1,2-b]quinolin-1-yl)-4-hydroxy-1-methylpyrrolidine-2-carboxamide]",13.9 nM,97.8%,6.2 nM,97.7%,,,,
"CC[C@@]1(O)C(=O)OCc2c1cc1n(c2=O)Cc2c-1nc1cc(F)c(C)c3c1c2[C@@H](NC(=O)C(C)(F)CO)CC3 (stereo partly drawn) [Example 2-41, N-((1S,9S)-9-ethyl-5-fluoro-9-hydroxy-4-methyl-10,13-dioxo-2,3,9,10,13,15-hexahydro-1H,12H-benzo[de]pyrano[3′,4′:6,7]indolizino[1,2-b]quinolin-1-yl)-2-fluoro-3-hydroxy-2-methylpropanamide]",1.5 nM,99.9%,0.6 nM,98.2%,,,,
"CC[C@@]1(O)C(=O)OCc2c1cc1n(c2=O)Cc2c-1nc1cc3c(c4c1c2[C@@H](NC(=O)CO)CC4)OCO3 [Example 2-11, N-((1S,10S)-10-ethyl-10-hydroxy-11,14-dioxo-2,3,10,11,14,16-hexahydro-1H,13H-benzo[de][1,3]dioxolo[4,5-g]pyrano[3′,4′:6,7]indolizino[1,2-b]quinolin-1-yl)-2-hydroxyacetamide]",,,,99.6%,10.2 nM,99.7%,3.2 nM,
"CC[C@@]1(O)C(=O)OCc2c1cc1n(c2=O)Cc2c-1nc1cc3c(c4c1c2C(CCCO)CC4)OCO3 (single isomer, unassigned) [Example 2-60]",,,,,,,,EC50 (A375): 0.8 nM; Emax (%) (A375): 100.0%; potency compared with compound 1-A and 1-C (A375): higher potency than compound 1-A and 1-C; EC50 (Calu-6): 0.2 nM; Emax (%) (Calu-6): 98.2%
"CC[C@@]1(O)C(=O)OCc2c1cc1n(c2=O)Cc2c-1nc1cc(Cl)c(C)c3c1c2[C@@H](N)CC3 [Example 1-8, (1S,9S)-1-amino-5-chloro-9-ethyl-9-hydroxy-4-methyl-1,2,3,9,12,15-hexahydro-10H,13H-benzo[de]pyrano[3′,4′:6,7]indolizino[1,2-b]quinoline-10,13-dione]",1.2 nM,98.8%,0.5 nM,98.8%,,,,
"CC[C@@]1(O)C(=O)OCc2c1cc1n(c2=O)Cc2c-1nc1cc(F)c(OC)c3c1c2[C@@H](N)CC3 [Example 1-1, (1S,9S)-1-amino-9-ethyl-5-fluoro-9-hydroxy-4-methoxy-1,2,3,9,12,15-hexahydro-10H,13H-benzo[de]pyrano[3′,4′:6,7]indolizino[1,2-b]quinoline-10,13-dione methanesulfonate]",2 nM,100%,0.9 nM,99.6%,,,,
"CC[C@@]1(O)C(=O)OCc2c1cc1n(c2=O)Cc2c-1nc1cc(OC)cc3c1c2[C@@H](NC(=O)CO)CC3 [Example 2-28, N-((1S,9S)-9-ethyl-9-hydroxy-5-methoxy-10,13-dioxo-2,3,9,10,13,15-hexahydro-1H,12H-benzo[de]pyrano[3′,4′:6,7]indolizino[1,2-b]quinolin-1-yl)-2-hydroxyacetamide]",13.8 nM,98.8%,7.4 nM,98.7%,,,,
"CC[C@@]1(O)C(=O)OCc2c1cc1n(c2=O)Cc2c-1nc1cc(F)c(C)c3c1c2[C@@H](N1CCCC1CO)CC3 (single isomer, unassigned) [Example 2-49]",,99.9%,0.2 nM,99.1%,,,,EC50 (A375): 0.7 nM
"CC[C@@]1(O)C(=O)OCc2c1cc1n(c2=O)Cc2c-1nc1cc3c(c4c1c2C(CCCO)CC4)OCO3 (single isomer, unassigned) [Example 2-59]",,,,98.4%,0.8 nM,100%,0.2 nM,potency compared with compound 1-A and 1-C (A375): higher potency than compound 1-A and 1-C
"CC[C@@]1(O)C(=O)OCc2c1cc1n(c2=O)Cc2c-1nc1cc(Cl)c(C)c3c1c2[C@@H](NC(=O)C(C)(C)CO)CC3 [Example 2-8, N-((1S,9S)-5-chloro-9-ethyl-9-hydroxy-4-methyl-10,13-dioxo-2,3,9,10,13,15-hexahydro-1H,12H-benzo[de]pyrano[3′,4′:6,7]indolizino[1,2-b]quinolin-1-yl)-3-hydroxy-2,2-dimethylpropanamide]",1.2 nM,98.6%,0.4 nM,99.3%,,,,
"CC[C@@]1(O)C(=O)OCc2c1cc1n(c2=O)Cc2c-1nc1cc(F)c(C)c3c1c2[C@@H](n1cc(CCCO)nn1)CC3 [Example 2-24, (1S,9S)-9-ethyl-5-fluoro-9-hydroxy-1-(4-(3-hydroxypropyl)-1H-1,2,3-triazol-1-yl)-4-methyl-1,2,3,9,12,15-hexahydro-10H,13H-benzo[de]pyrano[3′,4′:6,7]indolizino[1,2-b]quinoline-10,13-dione]",7.1 nM,99.9%,3.2 nM,99.2%,,,,
"CC[C@@]1(O)C(=O)OCc2c1cc1n(c2=O)Cc2c-1nc1cc(F)c(C)c3c1c2[C@@H](NC(=O)C1CCCC1O)CC3 (single isomer, unassigned) [Example 2-9]",,100%,,98.6%,,,,EC50 (A375): 1.9 nM; EC50 (Calu-6): 0.7 nM
"CC[C@@]1(O)C(=O)OCc2c1cc1n(c2=O)Cc2c-1nc1cc(F)c(C)c3c1c2[C@@H](NC(=O)C1CCCC1O)CC3 (single isomer, unassigned) [Example 2-10]",,,,,,,,EC50 (A375): 0.8 nM; Emax (%) (A375): 99.9%; EC50 (Calu-6): 0.2 nM; Emax (%) (Calu-6): 98.9%
"CC[C@@]1(O)C(=O)OCc2c1cc1n(c2=O)Cc2c-1nc1cc3c(c4c1c2[C@@H](NC(=O)C(C)(C)CO)CC4)OCO3 [Example 2-35, N-((1S,10S)-10-ethyl-10-hydroxy-11,14-dioxo-2,3,10,11,14,16-hexahydro-1H,13H-benzo[de][1,3]dioxolo[4,5-g]pyrano[3′,4′:6,7]indolizino[1,2-b]quinolin-1-yl)-3-hydroxy-2,2-dimethylpropanamide]",1.6 nM,100%,0.2 nM,98.6%,,,,
"CC[C@@]1(O)C(=O)OCc2c1cc1n(c2=O)Cc2c-1nc1cc(F)c(C)c3c1c2[C@@H](NC(=O)OCCO)CC3 [Example 2-6, 2-hydroxyethyl ((1S,9S)-9-ethyl-5-fluoro-9-hydroxy-4-methyl-10,13-dioxo-2,3,9,10,13,15-hexahydro-1H,12H-benzo[de]pyrano[3′,4′:6,7]indolizino[1,2-b]quinolin-1-yl)carbamate]",,,,96.9%,1.4 nM,99.9%,0.3 nM,
"CC[C@@]1(O)C(=O)OCc2c1cc1n(c2=O)Cc2c-1nc1cc(F)c(C)c3c1c2[C@@H](NC(=O)[C@@H]1C[C@H](O)CN1C)CC3 [Example 2-37, (2S,4S)—N-((1S,9S)-9-ethyl-5-fluoro-9-hydroxy-4-methyl-10,13-dioxo-2,3,9,10,13,15-hexahydro-1H,12H-benzo[de]pyrano[3′,4′:6,7]indolizino[1,2-b]quinolin-1-yl)-4-hydroxy-1-methylpyrrolidine-2-carboxamide]",3.7 nM,99.9%,1.5 nM,98.8%,,,,
"CC[C@@]1(O)C(=O)OCc2c1cc1n(c2=O)Cc2c-1nc1cc(F)c(C)c3c1c2C(OCCO)CC3 (single isomer, unassigned) [Example 2-45]",,,,99.2%,1.3 nM,100%,0.7 nM,
"CC[C@@]1(O)C(=O)OCc2c1cc1n(c2=O)Cc2c-1nc1cc(F)c(C)c3c1c2C(CN(C)CCO)CC3 (stereo partly drawn) [Example 2-54, (9S)-9-ethyl-5-fluoro-9-hydroxy-1-(((2-hydroxyethyl)(methyl)amino)methyl)-4-methyl-1,2,3,9,12,15-hexahydro-10H,13H-benzo[de]pyrano[3′,4′:6,7]indolizino[1,2-b]quinoline-10,13-dione]",0.9 nM,100%,0.2 nM,98.2%,,,,
"CCc1c2c(nc3ccc(O)cc13)-c1cc3c(c(=O)n1C2)COC(=O)[C@]3(O)CC [Example 1-C, reference compound]",,,,,4.3 nM,99.5%,2.6 nM,
"CC[C@@]1(O)C(=O)OCc2c1cc1n(c2=O)Cc2c-1nc1cc3c(c4c1c2[C@@H](N)CC4)OCO3 [Example 1-10, (1S,10S)-1-amino-10-ethyl-10-hydroxy-1,2,3,10,13,16-hexahydro-11H,14H-benzo[de][1,3]dioxolo[4,5-g]pyrano[3′,4′:6,7]indolizino[1,2-b]quinoline-11,14-dione]",,,,97.7%,0.4 nM,97.7%,0.3 nM,
"CC[C@@]1(O)C(=O)OCc2c1cc1n(c2=O)Cc2c-1nc1cc(F)c(C)c3c1c2C(CCO)CC3 (stereo partly drawn) [Example 2-46, (9S)-9-ethyl-5-fluoro-9-hydroxy-1-(2-hydroxyethyl)-4-methyl-1,2,3,9,12,15-hexahydro-10H,13H-benzo[de]pyrano[3′,4′:6,7]indolizino[1,2-b]quinoline-10,13-dione]",,,,98.1%,0.7 nM,100%,0.2 nM,

# Reference: US20250295798A1, “LIGAND-DRUG CONJUGATE OF EXATECAN ANALOGUE, AND MEDICAL USE THEREOF” (BeiGene Switzerland GmbH, priority 2022, published 2025)
